Where two headings read alike, the source gives them in different places.
Assays:
[1] = Observed pharmacokinetic parameters, fixed and weight-based dosing regimen; type: in vivo, human; details: for AUC(0-t): human, in vivo, oral; for AUC Ratio (A/P) Mean (SD) / AUC Ratio (A/P) Median / AUC Ratio (A/P) Min / AUC Ratio (A/P) max: observed vs predicted
Procedure: Table 4 summarizes the pharmacokinetic parameters of mean and median AUC0-24 values for subjects receiving 2.5 mg and 5.0 mg equivalent doses of palovarotene. Skeletally mature subjects received fixed dose regimens, while the skeletally immature subjects <18 years old were dosed via weight adjusted equivalent doses.
One other parameter known to impact systemic exposure of palovarotene is food. For the clinical studies, all subjects are instructed to administer study medication at approximately the same time each day, and following a full meal, although the exact amount consumed is not recorded.

Fsp1-Ext1CKO mice [2] = test: Crown-rump length in MO mouse model; type: in vivo
Procedure: Crown-rump length, defined as mouse body length from snout to base of the tail, was measured using a ruler in vehicle and palovarotene treated Fsp1-Ext1CKO mice and untreated wild-type (WT) littermates at baseline (Study Day 1) and, 3 and 4 weeks post initiation of palovarotene treatment (Study Day 21 and 28, respectively). As show in FIG. 3, palovarotene treatment had no effect on crown-rump length after 4 weeks of daily oral treatment in Fsp1-Ext1CKO mice compared to vehicle controls.

Fsp1-Ext1CKO mice [3] = test: Dose response of palovarotene to inhibit OC formation (P14 and P21 cohorts); type: in vivo; details: for EC50 at AUC0-24 hr (percent decrease in total OCs at rib and limb bones): extrapolated exposure
Procedure: Nonclinical pharmacology data: Fsp1-Ext1CKO mice were administered three doses of palovarotene (0.269 mg/kg [low], 0.882 mg/kg [mid], or 1.764 mg/kg [high]) for 28 consecutive days starting treatment at Day 14 postpartum (P14 cohort), or for 21 consecutive days starting at Day 21 postpartum (P21 cohort).
To determine the dose exposure response, exposure in this study was extrapolated based on pharmacokinetic data obtained from adult wild-type (WT) mice with the assumption that pharmacokinetics in adult WT mice are similar to juvenile Fsp1-Ext 1CKO mice.

Fsp1-Ext1^CKO mice = test: Effect of palovarotene on osteochondroma (OC) formation, alcian blue whole-mount skeletal staining of rib bones; type: in vivo
Text: Biallelic conditional knock-out (CKO) of Ext1 using a Cre transgene driven by an Fsp1 promotor) (Fsp1-Ext1^CKO in mice leads to the formation of phenotypes characteristic of MO. Fsp1 expression in developing bone is restricted to the perichondrium and periosteum. Perichondrium-targeted Ext1 deletion in mice causes osteochondromatogenesis in long bones, vertebrae and ribs. Fsp1-Ext1^CKO mice appear normal at birth, present mild bone deformity by P (postnatal day) 28 and have normal life span. In these mice, bony protrusions consisting of bony tuberosities with a cartilage cap are first detectable after P14. These protrusions are consistent with the histological features of osteochondromas in human MO. By P28, all animals develop multiple osteochondromas that can be readily observed in whole-mount skeletal preparations. This phenotype supports the relevance of the Fsp1-Ext1^CKO mouse as a preclinical model of MO. It also mimics the findings observed in a previously developed mouse model of MO, the Col2a1-Ext1^CKO mice.
The therapeutic effect of palovarotene in MO was tested in the Fsp1-Ext1^CKO mouse model. The CKO mice were treated with palovarotene (1.05 mg/kg) or vehicle by oral gavage daily. Treatment was initiated on day 14 postpartum and continued daily for 4 weeks. The effect of palovarotene on the formation of osteochondromas (OCs) in the mouse model was evaluated using whole-mount skeletal preparation. At end of treatment, the mice were euthanized by CO2 inhalation and the carcasses were eviscerated and fixed in 95% ethanol overnight. The preparations were stained with alcian blue for 3 days, rinsed in 95% ethanol, and incubated in 2% KOH for 1-2 days. Stained preparations were cleaned in 20% glycerol/1% KOH for 14 days and transferred to 50% glycerol/50% ethanol for photography and storage. By examination under a dissecting microscope, an alcian blue-positive protrusion that was clearly distinguishable was considered as an OC. OCs were identified and counted in each of the 24 rib bones from each mouse.
The sum of these counts (total number of OCs at the rib bones) and the mean occurrence of response (number of rib bones showing no OCs vs. number of rib bones showing at least one OC) were reported for each treatment group.

[4] = PVO 2.5 mg Weight-Adjusted Equivalent
[5] = PVO 5 mg Weight-Adjusted Equivalent
[6] = mean occurrence of 24 rib bones, 1.05 mg/kg daily × 28 days, p=0.0039 vs vehicle (Fisher's exact test)

CC1(C)CCC(C)(C)c2cc(Cn3cccn3)c(/C=C/c3ccc(C(=O)O)cc3)cc21 [Palovarotene, 4-[(1E)-2-[5,6,7,8-Tetrahydro-5,5,8,8-tetramethyl-3-(1H-pyrazol-1-ylmethyl)-2-naphthalenyl]-ethenyl]-benzoic acid]
Observed exposures using weight based dosing compared with fixed dosing ([1]; 2.5 mg and 5.0 mg equivalent doses, few subjects in 2.5 mg group): tended to be lower than fixed dosing
AUC(0-t) ([1]; 2.5 mg, PVO 2.5 mg Fixed Dose, N=4, read-out: AUC0-24 h Mean (SD)): 176 ng·h/mL
AUC(0-t) ([1]; 2.5 mg, PVO 2.5 mg Fixed Dose, N=4, read-out: AUC0-24 h Median): 149 ng·h/mL
AUC(0-t) ([1]; 2.5 mg, PVO 2.5 mg Fixed Dose, N=4, read-out: AUC0-24 h Min): 107 ng·h/mL
AUC(0-t) ([1]; 2.5 mg, PVO 2.5 mg Fixed Dose, N=4, read-out: AUC0-24 h max): 31 ng·h/mL
AUC(0-t) ([1]; 2.5 mg, PVO 2.5 mg Weight-Adjusted Equivalent, N=3, read-out: AUC0-24 h Mean (SD)): 98 ng·h/mL
AUC(0-t) ([1]; 2.5 mg, PVO 2.5 mg Weight-Adjusted Equivalent, N=3, read-out: AUC0-24 h Median): 78 ng·h/mL
AUC(0-t) ([1]; 2.5 mg, PVO 2.5 mg Weight-Adjusted Equivalent, N=3, read-out: AUC0-24 h Min): 37 ng·h/mL
AUC(0-t) ([1]; 2.5 mg, PVO 2.5 mg Weight-Adjusted Equivalent, N=3, read-out: AUC0-24 h max): 179 ng·h/mL
AUC(0-t) ([1]; 5 mg, PVO 5 mg Fixed Dose, N=15, read-out: AUC0-24 h Mean (SD)): 347 ng·h/mL
AUC(0-t) ([1]; 5 mg, PVO 5 mg Fixed Dose, N=15, read-out: AUC0-24 h Median): 320 ng·h/mL
AUC(0-t) ([1]; 5 mg, PVO 5 mg Fixed Dose, N=15, read-out: AUC0-24 h Min): 144 ng·h/mL
AUC(0-t) ([1]; 5 mg, PVO 5 mg Fixed Dose, N=15, read-out: AUC0-24 h max): 667 ng·h/mL
AUC(0-t) ([1]; 5 mg, PVO 5 mg Weight-Adjusted Equivalent, N=6, read-out: AUC0-24 h Mean (SD)): 249 ng·h/mL
AUC(0-t) ([1]; 5 mg, PVO 5 mg Weight-Adjusted Equivalent, N=6, read-out: AUC0-24 h Median): 218 ng·h/mL
AUC(0-t) ([1]; 5 mg, PVO 5 mg Weight-Adjusted Equivalent, N=6, read-out: AUC0-24 h Min): 139 ng·h/mL
AUC(0-t) ([1]; 5 mg, PVO 5 mg Weight-Adjusted Equivalent, N=6, read-out: AUC0-24 h max): 363 ng·h/mL
AUC Ratio (A/P) Mean (SD) ([1]; PVO 2.5 mg Fixed Dose): 1.1 (0.7)
AUC Ratio (A/P) Median ([1]; PVO 2.5 mg Fixed Dose): 0.9
AUC Ratio (A/P) Min ([1]; PVO 2.5 mg Fixed Dose): 0.6
AUC Ratio (A/P) max ([1]; PVO 2.5 mg Fixed Dose): 2.1
AUC Ratio (A/P) Mean (SD) [1, 4]: 0.8 (0.6)
AUC Ratio (A/P) Median [1, 4]: 0.6
AUC Ratio (A/P) Min [1, 4]: 0.3
AUC Ratio (A/P) max [1, 4]: 1.4
AUC Ratio (A/P) Mean (SD) ([1]; PVO 5 mg Fixed Dose): 1.3 (0.7)
AUC Ratio (A/P) Median ([1]; PVO 5 mg Fixed Dose): 1.1
AUC Ratio (A/P) Min ([1]; PVO 5 mg Fixed Dose): 0.6
AUC Ratio (A/P) max ([1]; PVO 5 mg Fixed Dose): 2.9
AUC Ratio (A/P) Mean (SD) [1, 5]: 1.0 (0.3)
AUC Ratio (A/P) Median [1, 5]: 0.9
AUC Ratio (A/P) Min [1, 5]: 0.5
AUC Ratio (A/P) max [1, 5]: 1.4
AUCA/P ratio ([1]; overall, observed vs predicted exposures): ~1
Effect on crown-rump length (Fsp1-Ext1CKO mice [2]; after 4 weeks of daily oral treatment, compared to vehicle controls): no effect
Long bone growth (Fsp1-Ext1CKO mice [2]; summary of the Examples): able to maintain long bone growth
Normal bone growth in the animal (Fsp1-Ext1CKO mice [2]; summary of the Examples): did not interfere with normal bone growth
Occurrence of OCs (Fsp1-Ext1CKO mice [3]; 0.269, 0.882 or 1.764 mg/kg, 28 days from P14 or 21 days from P21, vs vehicle controls): inhibited the occurrence of OCs in a dose-dependent manner
Efficacy P14 cohort compared to P21 cohort (Fsp1-Ext1CKO mice [3]; 28 days from P14 vs 21 days from P21): Greater efficacy was observed with earlier and longer dosing in the P14 cohort
EC50 at AUC0-24 hr (percent decrease in total OCs at rib and limb bones) (Fsp1-Ext1CKO mice [3]; P14 cohort): 57 to 62 ng·h/mL
EC50 at AUC0-24 hr (percent decrease in total OCs at rib and limb bones) (Fsp1-Ext1CKO mice [3]; P21 cohort): 125 to 173 ng·h/mL
Total number of OCs at the rib bones Mean (95% CI) (Fsp1-Ext1^CKO mice; 1.05 mg/kg daily × 28 days, oral gavage from day 14 postpartum, n=9, vehicle 147.3): 28.33 (23.23-33.43)
Effect on total number of OCs per rib bone and formation of OCs (Fsp1-Ext1^CKO mice; 1.05 mg/kg daily, 4 weeks, vs vehicle): reduced the total number of OCs per rib bone and prevent the formation of OCs
Number of rib bones showing at least one OC (Fsp1-Ext1^CKO mice; [6]): 16
Number of rib bones showing no OC (Fsp1-Ext1^CKO mice; [6]): 8
Cartilage hyperplasia (Fsp1-Ext1^CKO mice; summary of the Examples): reduced cartilage hyperplasia
Number and size of osteochondromas observed (Fsp1-Ext1^CKO mice; summary of the Examples): reduced the number and size of osteochondromas observed

From US10980778B2, “Methods for treating multiple osteochondroma (MO)” (Clementia Pharmaceuticals Inc., priority 2016, dated 2021)
